Laboratory results as given in the NIST ThermoML archive (doi:10.1021/je3011634).
Numbers after ± are expanded uncertainties.

Conditions: 293.15 K; 101.33 kPa; Liquid; Capillary tube (Ostwald / Ubbelohde) method

Row | SMILES | viscosity [mPa·s]
1 | CC(C)CO [2-methyl-1-propanol] | 4.087 ± 0.1
2 | NCCCO [3-amino-1-propanol] | 40.46 ± 0.27
3 | CCCO [propan-1-ol] | 2.204 ± 0.1
4 | CC(C)O [propan-2-ol] | 2.362 ± 0.1

Same assay, conditions: 293.15 K; 101.33 kPa; Liquid; Vibrating tube method

Row | SMILES | mass density [kg/m3]
5 | CC(C)CO [2-methyl-1-propanol] | 801.82 ± 0.24
6 | NCCCO [3-amino-1-propanol] | 987.65 ± 0.23
7 | CCCO [propan-1-ol] | 803.57 ± 0.15
8 | CC(C)O [propan-2-ol] | 785.35 ± 0.17

Same assay, conditions: 303.15 K; 101.33 kPa; Liquid; Capillary tube (Ostwald / Ubbelohde) method

Row | SMILES | viscosity [mPa·s]
9 | CC(C)CO [2-methyl-1-propanol] | 2.877 ± 0.1
10 | NCCCO [3-amino-1-propanol] | 23.98 ± 0.18
11 | CCCO [propan-1-ol] | 1.513 ± 0.1
12 | CC(C)O [propan-2-ol] | 1.762 ± 0.1

Same assay, conditions: 303.15 K; 101.33 kPa; Liquid; Vibrating tube method

Row | SMILES | mass density [kg/m3]
13 | CC(C)CO [2-methyl-1-propanol] | 794.06 ± 0.24
14 | NCCCO [3-amino-1-propanol] | 979.65 ± 0.23
15 | CCCO [propan-1-ol] | 795.53 ± 0.15
16 | CC(C)O [propan-2-ol] | 776.86 ± 0.17

Same assay, conditions: 313.15 K; 101.33 kPa; Liquid; Capillary tube (Ostwald / Ubbelohde) method

Row | SMILES | viscosity [mPa·s]
17 | CC(C)CO [2-methyl-1-propanol] | 2.091 ± 0.1
18 | NCCCO [3-amino-1-propanol] | 15.31 ± 0.14
19 | CCCO [propan-1-ol] | 1.018 ± 0.1
20 | CC(C)O [propan-2-ol] | 1.2 ± 0.1

Same assay, conditions: 313.15 K; 101.33 kPa; Liquid; Vibrating tube method

Row | SMILES | mass density [kg/m3]
21 | CC(C)CO [2-methyl-1-propanol] | 786.12 ± 0.24
22 | NCCCO [3-amino-1-propanol] | 971.61 ± 0.23
23 | CCCO [propan-1-ol] | 787.35 ± 0.15
24 | CC(C)O [propan-2-ol] | 768.07 ± 0.17

Same assay, conditions: 323.15 K; 101.33 kPa; Liquid; Capillary tube (Ostwald / Ubbelohde) method

Row | SMILES | viscosity [mPa·s]
25 | CC(C)CO [2-methyl-1-propanol] | 1.576 ± 0.1
26 | NCCCO [3-amino-1-propanol] | 10.22 ± 0.12
27 | CCCO [propan-1-ol] | 0.79 ± 0.1
28 | CC(C)O [propan-2-ol] | 0.938 ± 0.1

Same assay, conditions: 323.15 K; 101.33 kPa; Liquid; Vibrating tube method

Row | SMILES | mass density [kg/m3]
29 | CC(C)CO [2-methyl-1-propanol] | 777.94 ± 0.24
30 | NCCCO [3-amino-1-propanol] | 963.52 ± 0.23
31 | CCCO [propan-1-ol] | 778.98 ± 0.15
32 | CC(C)O [propan-2-ol] | 758.89 ± 0.18

Same assay, conditions: 333.15 K; 101.33 kPa; Liquid; Capillary tube (Ostwald / Ubbelohde) method

Row | SMILES | viscosity [mPa·s]
33 | CC(C)CO [2-methyl-1-propanol] | 1.125 ± 0.1
34 | NCCCO [3-amino-1-propanol] | 6.962 ± 0.11
35 | CC(C)O [propan-2-ol] | 0.604 ± 0.1

Same assay, conditions: 333.15 K; 101.33 kPa; Liquid; Vibrating tube method

Row | SMILES | mass density [kg/m3]
36 | CC(C)CO [2-methyl-1-propanol] | 769.46 ± 0.24
37 | NCCCO [3-amino-1-propanol] | 955.38 ± 0.23
38 | CCCO [propan-1-ol] | 770.38 ± 0.16
39 | CC(C)O [propan-2-ol] | 749.25 ± 0.18
